Results taken from article PMC11883425, “The synthesis and investigation of novel 3-benzoylbenzofurans and pyrazole derivatives for anti-HIV activity” (RSC Medicinal Chemistry, 2025).

Tests used:
HIV-1 Q23 pseudovirus = experiment: HIV-1 whole virus inhibition assay, Q23 pseudovirus (luciferase, TZM-bl cells); format: cell-based; settings: for IC50: TZM-bl, 48 h, read-out: IC50 (μM) Q23, Q23 pseudovirus, TZM-bl cells, 48 hours
Experimental: (§1) The HIV pseudoviruses were produced from the plasmids that were kindly donated by Dr Mthunzi-Kufa (CSIR, South Africa). Competent DH5α cells and STBL2 cells were transformed with envelope (CAP210.2.00.E8 and Q23.17) and backbone plasmid (HIV-1 SG3 ΔEnv) through heat-shock at 42 °C for 90 seconds and cooled in ice for 5 minutes. The transformed cells were grown in Luria Bertani medium containing 100 μg mL^−1 ampicillin and glycerol stocks were prepared. The transformed cells were grown at 37 °C in a 200 rpm shaking incubator overnight and the plasmids were isolated from the cells using a GeneJET plasmid Miniprep Kit (ThermoFisher Scientific Inc). The purity of the isolated plasmids was assessed for purity using Nanodrop. The HEK 293T cells were co-transfected with the backbone (10 μg) and envelope plasmids (5 μg) using the PolyFect Transfection Reagent (QIAGEN N.V) for 8–12 hours and the transfected cells were grown for 48 hours producing pseudoviruses which were collected, and stocks stored at −80 °C.
(§2) The compounds were serial diluted from 100 to1.56 μM in 96 well plates (Separation Scientific SA (Pty) Ltd) and incubated with either CAP210 or Q23 pseudoviruses (200 TCID50) and incubated for 1 hour. The TZM-bl cells (1 × 10^5 cells per mL containing 7.5 μg mL^−1 DEAE-dextran) were added and incubated for 48 hours. The 96 well plates were centrifuged, and the supernatant was removed leaving only 50 μL in each well. The Bright-Glo™ Luciferase substrate (Anatech Instruments (Pty) Ltd) (50 μL) was added to each well and incubated for 2 minutes in the dark and chemiluminescence readings were taken in a Corning® 96-well white polystyrene plate using a SpectraMax® Paradigm® Multi-Mode Microplate Reader.

HIV-1 CAP210 pseudovirus = experiment: HIV-1 whole virus inhibition assay, CAP210 pseudovirus (luciferase, TZM-bl cells); format: cell-based; settings: for IC50: TZM-bl, 48 h, read-out: IC50 (μM) CAP210, CAP210 pseudovirus, TZM-bl cells, 48 hours
Experimental: as §1, §2

[1] = Cytotoxicity in TZM-bl cells by MTT assay; format: cell-based; settings: human, MTT assay, 48 hours, mean ± SEM
Experimental: (§3) All cell culture reagents and cell growth medium were purchased from Sigma-Aldrich/Merck. The cell lines are TZM-bl cells (HeLa cells derived cell that is genetically engineered to contain CD4 and CCR5/CXCR4 receptor) were obtained from NIH AIDS Reagent Program and HEK 293T (derived from human embryonic kidney cells) were received as donations from the lab of Dr Patience Mthunzi, Biophotonics laboratory, CSIR. […] The cells were cultured in T-75 culture flasks (Lasec SA (Pty) Ltd Johannesburg) in Dulbecco's modified Eagle's medium (DMEM) with 3.7 g L^−1 […], 0.05% (v/v) gentamicin/mL, 1% penicillin/streptomycin and 10% heat-inactivated fetal bovine serum (Celtic Molecular Diagnostics). All incubations for tissue cell culture were conducted in a 37 °C, 5% CO2, and 95% humidity incubator.
(§4) The cytotoxicity of compounds was evaluated in TZM-bl cells since these cells are susceptible to HIV infections and would be used for the evaluation of HIV entry inhibition by 3-benzoylbenzofurans and pyrazole derivatives.[74] MTT dye (3-(4,5-dimethylthiazol-2-yl)-2,5-diphenyltetrazolium bromide), which is reduced by viable cells to produce […] purple formazan, was then measured and correlated with cell viability.[75] TZM-bl cells were cultured to confluency in DMEM containing 10% FBS and harvested by centrifugation at 1200 × g for 5 minutes. The cells were counted at 1 × 10^5 cells per mL per well and were seeded overnight, followed by treatment with serially diluted compounds from 500 to 0.98 μM for 48 hours. The peripheral blood mononuclear cells (PBMCs) were isolated from the blood of HIV-negative volunteers, treated with phytohaemagglutinin-protein (PHA, 4 μg mL^−1) to stimulate the cells for 2 hours. PBMCs were diluted in RPMI-1640 medium, counted and 1 × 10^6 cells per mL were treated with compounds (500 to 0.98 μM) for 48 hours. Cells were harvested by centrifugation at 1200 × g for 5 minutes, and the supernatants were removed. For the PBMCs, MTS dye (3-(4,5-dimethylthiazol-2-yl)-5-(3-carboxymethoxyphenylo)-2-(4-sulfophenyl)-2H-tetrazolium) was used.[76] A 100 μL of tetrazolium dye (5 mg mL^−1 MTT prepared in DMEM or 1 : 9 dilution MTS prepared in RPMI-1640) was added to the wells and incubated for 4 to 24 hours. MTT samples were solubilized with 100 μL solubilization buffer (1 mL HCl: 9 mL isopropanol) for 30 minutes, and the absorbance reading was taken at 550 nm and 690 nm wavelengths. MTS sample readings were taken at 490 nm without a solubilization step using the SpectraMax^R Paradigm^R Multi-Mode Detection Platform plate reader (Molecular Devices, California, USA).

CAP210 pseudovirus = experiment: Time of drug addition assay, CAP210 pseudovirus in TZM-bl cells; format: cell-based, HIV-1; settings: added 0, 2, 4, 6, 8 hours post-infection
Experimental: Fig. 5 Time of addition assay of CAP210 HIV infection treated with active compounds. TZM-bl cells were infected with CAP210 pseudoviruses and treated with compounds at various hours post-infection. NVP, 3g, and 4b were used at 3 μM, while 5f and 5h were used at 25 μM. The bars represent the mean ± SEM obtained from three independent experiments.
TZM-bl cells (1 × 10^5 cells per mL containing 7.5 μg mL^−1 DEAE-dextran) were infected with CAP210 pseudovirus at 400 TCID50 and incubated at 37 °C for 48 hours. The compounds were added to the wells at various time points (0, 2, 4, 6, and 8 hours) post-infection. […] After 48 hours, the cells were centrifuged at 1200 × g for 5 minutes, culture media was removed, leaving 50 μL, and Bright-Glo substrate (50 μL) was added to detect luciferase activity for 2 minutes at 37 °C. Inhibition of HIV pseudoviruses by active compounds was detected by reading for chemiluminescence using a Corning® 96-well white polystyrene using the SpectraMax® Paradigm® Multi-Mode Microplate Reader.

HIV-1 PR = target: T1, HIV-1 PR (Human immunodeficiency virus type 1 group M subtype B, UniProt P04585); experiment: HIV-1 protease inhibition assay (fluorogenic substrate); format: biochemical; settings: for SI (HIV-1 PR): CC50 PBMCs / IC50 HIV-1 PR
T1 construct: 2 μL recombinant HIV-PR (0.2 μg mL^−1) was added only to reaction wells
Experimental: Compounds were serially diluted in protease assay buffer (0.1 M CH3COONa, 1 M NaCl, 1 mM EDTA, 1 mM DTT, and 1 mg mL^−1 BSA; pH 4.7), making a final concentration of 75 to 9.4 μM, and 49 μL of compounds were added to wells. 49 μL protease substrate 1 (10 μM) was added to each well, and 2 μL recombinant HIV-PR (0.2 μg mL^−1) was added only to reaction wells except for reaction blanks, where it was replaced with 2 μL assay buffer. The solutions were mixed and incubated at 37 °C for 1 hour. Endpoint fluorescence readings at an excitation wavelength of 370 nm and an emission wavelength of 520 nm.

[2] = Cytotoxicity in PBMCs by MTS assay; format: cell-based; settings: human, peripheral blood mononuclear cells (PBMCs), PHA-stimulated, HIV-negative PBMCs
Experimental: as §4

TZM-bl cells = experiment: Cytotoxicity in TZM-bl cells by MTT assay; format: cell-based; settings: pyrazole vs benzofuran precursor
Experimental: as §3, §4

[3] = lowest concentrations tested, Fig. 3

Structure (SMILES) | IC50 (HIV-1 Q23 pseudovirus) [µM] | IC50 (HIV-1 CAP210 pseudovirus) [µM] | CC50 at 48 h [1] [µM] | inhibition of HIV infection by time of addition (CAP210 pseudovirus; 3 μM) | IC50 (HIV-1 PR) [µM] | SI (HIV-1 PR) (HIV-1 PR) | CC50 at 48 h [2] [µM] | decrease in cytotoxicity versus precursor (TZM-bl cells) [fold] | anti-HIV activity (Q23) (HIV-1 Q23 pseudovirus; [3]) | anti-HIV activity (CAP210) (HIV-1 CAP210 pseudovirus; [3]) | inhibition of HIV infection by time of addition (CAP210 pseudovirus; 25 μM)
COc1ccc(OC)c(C(=O)c2coc3ccc(O)cc23)c1 [3h, (5-Hydroxybenzofuran-3-yl)(2,5-dimethoxyphenyl)methanone] | 5.74 ± 1.51 | 4.45 ± 0.82 | 50 ± 10.5 |  |  |  |  |  |  |  | 
COc1ccc(OC)c(-c2n[nH]cc2-c2c(C)c(OC)cc(C)c2O)c1 [5b, 2-[3-(2,5-Dimethoxyphenyl)-1H-pyrazol-4-yl]-4-methoxy-3,6-dimethylphenol] | 10.1 ± 1.66 | 7.87 ± 0.91 | 46.5 ± 6.66 |  |  |  |  |  |  |  | 
COc1ccc(Br)cc1C(=O)c1coc2c1cc(OC)c1ccccc12 [4d, (5-Bromo-2-methoxyphenyl)(5-methoxynaphtho[1,2-b]furan-3-yl)methanone] | 22.4 ± 3.47 | 3.28 ± 1.48 | 7.77 ± 1.54 |  |  |  |  |  |  |  | 
COc1ccc(C(=O)c2coc3ccc(O)cc23)c(OC)c1OC [3g, (5-Hydroxybenzofuran-3-yl)(2,3,4-trimethoxyphenyl)methanone] |  |  | 79.9 ± 7.25 | inhibit HIV infections for up to 8 hours | 70.9 ± 12.4 | 1.3 | 89.5 ± 11.6 |  |  |  | 
COc1ccc(OC)c(-c2n[nH]cc2-c2c(O)cc(C)c(OC)c2C)c1 [5a, 2-[3-(2,5-Dimethoxyphenyl)-1H-pyrazol-4-yl]-4-methoxy-3,5-dimethylphenol] | 13.3 ± 1.12 | 18.4 ± 3.2 | 88.9 ± 22.1 |  |  |  |  | 1 |  |  | 
COc1cc(F)ccc1-c1n[nH]cc1-c1cc(OC)c2ccccc2c1O [5e, 2-[3-(4-Fluoro-2-methoxyphenyl)-1H-pyrazol-4-yl]-4-methoxynaphthalen-1-ol] | 15.7 ± 8.17 | 29.09 ± 0.18 | 103 ± 11.1 |  |  |  |  |  |  |  | 
COc1cc(F)ccc1-c1n[nH]cc1-c1cc(O)ccc1O [5f, 2-[3-(4-Fluoro-2-methoxyphenyl)-1H-pyrazol-4-yl]benzene-1,4-diol] |  |  | 36.1 ± 7.95 |  | 31.6 ± 3.83 | 3.1 | 98.2 ± 1.3 |  | over 90% | over 90% | only inhibited HIV infections when added on the onset of infection
COc1ccc(OC)c(C(=O)c2coc3c2cc(OC)c2ccccc23)c1 [4c, (2,5-Dimethoxyphenyl)(5-methoxynaphtho[1,2-b]furan-3-yl)methanone] | 12.6 ± 0.53 | 2.43 ± 1.28 | 9.65 ± 2.37 |  |  |  |  |  |  |  | 
